According to publication PMC8465649, “Semaphorin 3A—Glycosaminoglycans Interaction as Therapeutic Target for Axonal Regeneration” (Pharmaceuticals, 2021):
Ends that are not written are not given here.

Legend:
[1] = NMR competition (WaterLOGSY / spin-lock filtered 1H): displacement of FS2/FS3 peptides from heparin agarose resin; type: binding; settings: pH 7.5; for displacement of FS3 peptide from heparin agarose resin: spin-lock filtered 1D 1H NMR, 1 mM peptide, 1 mM peptoid
Procedure: NMR competition experiments involved the acquisition of 1D-^1H WaterLOGSY or spin-lock filtered NMR spectra. Thus, FS2 peptide is displaced from heparin agarose resin by CSIC02 (1:1 peptoid/FS2, both 1 mM), but not by CSIC03 (Figure S15). […] We reasoned that if CSIC02 was able to interact with GAG and displace FS2/FS3 basic peptides, it may also interfere with SCTWT–heparin interaction. To investigate if CSIC02 could displace SCTWT from heparin dp14 and to define the SCTWT residues affected, 2D NMR ^1H-^15N HSQC CSP experiments were used. Figure 8a illustrates the chemical shift effects of CSIC02 addition to a sample of SCTWT containing dp14 heparin. […] In Figure 8b, we display the chemical shift perturbation of SCTWT NMR spectra in the presence of dp14 and CSIC02. Thus, as the two CSP plots in Figure 4b and Figure 8b were calculated using as reference SCTWT alone in solution, we can compare them directly. […] Moreover, splitting of signals for some residues (R733, R734, and Q735 in the first GAG-binding region) was observed (Figure 8c). This observation is compatible with the presence of different species in slow chemical exchange in solution, with partial detachment of SCTWT from heparin. The amount of CSIC02 used in these experiments can be rationalized considering that the SCTWT has ca. 12 positive charges at neutral pH (Figure S18), while CSIC02 is tricationic. Since the binding is mediated by ionic polar interactions, a large excess of CSIC02 is needed to counterbalance the SCTWT-dp14 binding.
Next, 1D ^1H T1ρ relaxation filtered and WaterLOGSY NMR experiments were acquired at 25 °C on a 500-MHz spectrometer (Varian Inova; Agilent Technologies, Santa Clara, CA, USA) equipped with an AutoX inverse double-resonance probe with a z-shielded pulsed-field gradient coil. The samples were prepared in a 5-mm Wilmad NMR 528-PP tubes with 10 mM Tris-d11 (for peptide/GAG samples) and 150 mM NaCl dissolved in 90% H2O/10% D2O at pH 7.5. All spectra were obtained with a sweep width of 8 kHz and 16,384 acquired data points. The experiments were recorded using the standard pulse sequence in the (WLOGSY_ES) Chempack library, with excitation sculpting to suppress water resonances. For Water-LOGSY experiments, the first water-selective 180° pulse was 25 ms long. The spectra were acquired with 1200 transients and a spin-lock pulse of 50 ms at 3.7 kHz. To phase Water-LOGSY spectra correctly, it is necessary to use an internal reference compound. In our case, the reference is the residual ethanol absorbed/bonded in heparin-agarose resin (this interaction was previously confirmed with T1ρ filtered experiments), which appears as a positively phased signal. […]

[2] = Potentiometric titration (protonation state); type: physicochemical; settings: 25 °C, 0.15 M NaCl
Procedure: UV absorbance was measured using a SpectraMax M5 spectrophotometer (Molecular Devices, Sunnyvale, CA, USA). The experiments were performed with a 10 μM methylene blue (MB) solution in 5 mM Tris-HCl buffer at pH 7.5, to which increasing amounts of heparin were added to saturation of the MB dye. For the competition assays, solutions of MB and heparin at fixed concentrations were titrated with increasing amounts of SICHI or CSIC02–04 peptoids. Then, the relative increase in absorbance at 665 nm, due to release of MB from the MB–heparin complex when adding either SICHI or CSIC02–04 to the cuvette, can be plotted vs. the charge ratio considering their respective concentrations and that all the peptoids have three positive charges, and heparin has four negative charges per disaccharide unit. With this information, the charge excess for 50% of displacement of the MB dye (CE50) for each compound can be calculated for comparison. Potentiometric titrations were carried out in a reaction vessel thermostated with a water bath at 25.0 ± 0.1 °C under nitrogen atmosphere, and 0.15 M NaCl was used as the supporting electrolyte. The titrant was delivered by a precision microburette. The potentiometric measurements were made with a pH-mV meter. The reference electrode was an Ag/AgCl electrode in saturated KCl solution. The acquisition of the emf data was performed with the computer program Tiamo 2.3.1. […]

[3] = test system: Sema3A chemorepulsive activity; parameters: method as in PMID 19615921; settings: cited from earlier work
Sema3A = test system: Sema3A; parameters: method as in PMID 27028639; settings: cited from earlier work
Nrp1 = test system: Nrp1; parameters: method as in PMID 27028639; settings: cited from earlier work
[4] = SPR binding to immobilized biotinylated heparin; settings: Table S3
Procedure: (§1) The interaction between Sema3A basic tail and GAGs was analyzed using several methods: chromatographic elution as a function of NaCl concentration based on affinity to a heparin sepharose column, surface plasmon resonance (SPR), NMR [52], and molecular dynamics simulations. Firstly, we observed that SCTWT binds to a heparin-Sepharose column and the protein is only released at about 1M NaCl (>50% of buffer B, Figure 3c), similar to the widely reported antithrombin–heparin interaction, indicating a SCTWT-heparin high-affinity, in the 10^−7–10^−9 M range [54]. Next, SPR measurements were performed to characterize protein–heparin binding kinetics. […]
All SPR experiments were performed on a Biacore T-100 instrument (Cytiva, formally GE Healthcare, Marlborough, MA, USA) in HBS-T buffer (10 mM HEPES, 150 mM NaCl, 0.05% Tween-20, pH 7.5) at 25 °C. […] The SPR experiments were performed in duplicate and the dissociation constant (Kd) values and binding levels are expressed as the mean and standard deviation from the individual experiments. […]

[5] = Heparin affinity chromatography (NaCl gradient elution); type: binding
Procedure: Figure 3 SPR sensorgrams of increasing amounts (0 to 1 μM) of the SCTWT construct flown over (HBS-T buffer) (a) immobilized biotinylated heparin (350 RU) (b) CD Spectra of 5 μM Sema3A C-terminal region in the absence (blue) and the presence of 1 μM UFH (orange), measured at pH 5.5 in 10 mM NaP. […] SCTWT was loaded onto a HiTrap Heparin column equilibrated with […] (pH 7.5), and eluted with a linear gradient to 2 M NaCl. Left ordinate axis, absorbance; righ ordinate axis, % NaCl (% B).
A prepacked 1-mL HiTrap Heparin HP affinity column (GE Healthcare) was used on a AKTA purifier system to perform heparin affinity chromatography. Then, 100 μL of SCT samples at ~100 μM were injected and run at 1 mL/min in a linear gradient with buffer A = 10 mM Tris-HCl, pH = 7.5 and buffer B = 10 mM Tris-HCl, 2M NaCl, pH = 7.5.

[6] = SPR binding to immobilized biotinylated CS-A
Procedure: as §1
All SPR experiments were performed on a Biacore T-100 instrument (Cytiva, formally GE Healthcare, Marlborough, MA, USA) in HBS-T buffer (10 mM HEPES, 150 mM NaCl, 0.05% Tween-20, pH 7.5) at 25 °C. […] The SPR experiments were performed in duplicate and the dissociation constant (Kd) values and binding levels are expressed as the mean and standard deviation from the individual experiments.

[7] = molecular target: the molecule itself; assay: 1H-15N NMR spectra; 1H-15N NMR spectra of LCTWT acquired without and with reducing agent TCEP; monomer and dimer

Molecule: CCN(CC)CCNCC(=O)N(CCN1CCCC1)CC(=O)NCCC1CCCN1C (stereo not drawn) [CSIC03]
- displacement of FS2 peptide from heparin agarose resin ([1]; WaterLOGSY, 1:1 peptoid/FS2, both 1 mM): not
- displacement of FS3 peptide from heparin agarose resin [1]: incapable to displace

Molecule: CCN(CC)CCN(CC(=O)N(CCN1CCCC1)CC(=O)NCCC1CCCN1C)C(=O)OCc1ccccc1 (stereo not drawn) [CSIC04]
- displacement of FS3 peptide from heparin agarose resin [1]: incapable to displace

Molecule: CCN(CC)CCNCC(=O)N(CCN1CCCC1)CC(=O)N(CCC1CCCN1C)CC(N)=O (stereo not drawn) [SICHI]
- protonation state at neutral pH [2]: triprotonated
- in vitro effect on Sema3A chemorepulsive activity [3]: inhibition
- binding to Sema3A (Sema3A): neither Sema3A or Nrp1 bind
- binding to Nrp1 (Nrp1): neither Sema3A or Nrp1 bind

Molecule: FS2: Sema3A C-terminal peptide 725-736, VWKRDRKQRRQR
- fold stronger affinity to heparin compared to NFS3 peptide [4]: 60 fold

Molecule: LCTWT: recombinant Sema3A C-terminal construct 716-771 incorporating the cysteine (NTMDEFCEQVWKRDRKQRRQRPGHTPGNSNKWKHLQENKKGRNRRTHEFERAPRSV; also: post-translational modification of the N-terminus, kind not given here)
- NaCl concentration at elution under reducing conditions ([5]; 5 mM DTT): ~ 0.92 M NaCl
- NaCl concentration at elution peak (single or major peak) ([5]; linear gradient to 2 M NaCl, Tris-HCl pH 7.5): ~ 1.12 M NaCl
- NaCl concentration at minor elution peak ([5]; linear gradient to 2 M NaCl, minor peak (monomeric form)): ~ 0.92 M NaCl

Molecule: SCTRR/QH: SCT construct bearing two mutations, R730Q and R733H (VWKRDQKQHRQRPGHTPGNSNKWKHLQENKKGRNRRTHEFERAPRSV; UniProt Q14563 725-771, looked up, variant R730Q R733H)
- binding to CS-A ([6]; immobilized biotinylated CS-A): completely abrogated
- elution of the mutated protein relative to SCTWT ([5]; heparin affinity chromatography): slightly earlier elution

Molecule: SCTWT: recombinant Sema3A C-terminal polybasic tail construct, residues 725–771 (VWKRDRKQRRQRPGHTPGNSNKWKHLQENKKGRNRRTHEFERAPRSV; UniProt Q14563 725-771, looked up, fragment)
- affinity for heparin versus CS-A ([6]; comparison of heparin and CS-A chips): higher affinity to heparin than to CS-A

B1: recombinant Sema3A C-terminal construct incorporating the cysteine (LCTWT, 716-771) (domain or fragment, human, UniProt Q14563 716-771, looked up)
chain: NTMDEFCEQVWKRDRKQRRQRPGHTPGNSNKWKHLQENKKGRNRRTHEFERAPRSV
modifications: also: post-translational modification of the N-terminus, kind not given here
notes: Semaphorin 3A (Sema3A), human, C-terminal region 716-771 with the cysteine (Cys722 as printed) between the Ig domain and the basic tail; The methods say that the SCT constructs were made without any fusion tag in E. coli BL21 (DE3) and purified by cation exchange and reverse phase; source: recombinant
- binding result [7]: binds
